{
  "source": "patent US10517863B2",
  "about": "“Trilobine and its natural analogs for use as a drug” (PIERRE FABRE MEDICAMENT, priority 2015, dated 2019)",
  "target": "T1, human C-terminal DNMT3A (a.a. 623-908) (Homo sapiens, UniProt Q9Y6K1)",
  "T1 construct": "The human C-terminal DNMT3A (a.a. 623-908); made in house",
  "T1 sequence (Q9Y6K1 627-912)": "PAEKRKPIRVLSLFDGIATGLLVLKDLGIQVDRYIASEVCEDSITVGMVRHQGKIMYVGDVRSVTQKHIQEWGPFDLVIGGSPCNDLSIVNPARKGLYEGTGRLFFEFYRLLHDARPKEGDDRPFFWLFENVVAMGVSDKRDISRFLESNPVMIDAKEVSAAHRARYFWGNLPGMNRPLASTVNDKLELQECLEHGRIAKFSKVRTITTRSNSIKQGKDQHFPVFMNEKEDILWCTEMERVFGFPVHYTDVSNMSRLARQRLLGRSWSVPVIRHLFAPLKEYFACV",
  "test": "hDNMT3A restriction-based fluorescence assay",
  "format": "biochemical",
  "conditions": "read-out: hDNMT 3A inhibition, Inhibition (%)",
  "description": "hDNMT3A enzyme inhibition was adapted from the restriction-based fluorescence assay protocol as described in the literature (Ceccaldi et al. ChemBioChem 2011, 12, 1337-1345). Briefly, a 5′-labelled biotin oligonucleotide is hybridized to its complementary strand labelled with 6-carboxyfluorescein at the 3′-end into a 384 well microplate (black Optiplates; Perkin Elmer) pre-coated with avidin. The duplex contains a unique CpG site overlapping with a restriction site of a methylation sensitive restriction enzyme. The human C-terminal DNMT3A (a.a. 623-908), produced as described in the literature (Gros et al. Nucl. Acids Res. 2013, 41(19):e185), was added in each well (200 ng/well) and mixed with the chemical compounds at desired concentrations and freshly prepared AdoMet (20 μM final concentration) to start the reaction in a total volume of 50 μL. After 1 hour incubation at 37° C. each well were washed three times with PBS, Tween-20 0.05%, NaCl (500 mM) and three more times with PBST. Specific fluorescent signals were detected with the methylation-sensitive restriction enzyme HpyCH4IV (NEB) as described and measured on a Perkin Elmer Envision detector. The percentage of inhibition is reported. The formula used to calculate the percentage of inhibition is [(X−Y)/X]×100, where X is the signal determined in the absence of the inhibitor and Y is the signal obtained in the presence of the inhibitor. The concentration at which 50% of efficacy of inhibition is observed (EC50) was determined by analysis of a concentration range of the tested compound in triplicates. The non-linear regression fittings with sigmoidal dose-response (variable slope) were performed with GraphPad Prism 4.03 (GraphPad Software).",
  "data": [
    {"compound": "COc1ccc2cc1Oc1ccc(cc1)C[C@@H]1NCCc3cc(OC)c4c(c31)Oc1cc3c(cc1O4)CCN(C)[C@H]3C2", "note": "[Compound 1, Trilobine]", "values": [
      {"measurement": "inhibition at 10 µM", "setting": "10 μM", "value": 78, "unit": "%"},
      {"measurement": "inhibition at 32 µM", "setting": "32 μM", "value": 94, "unit": "%"}
    ]}
  ]
}
